In patent US20070148184A1, “Survivin-derived peptides and use thereof” (priority 2003, published 2007):
pEC50: −log10 of the molar value. Read-outs that look alike come from different tables or passages of the source. Blank lines part the entries; values can stand above or below the compound they belong to. No end group written: not given here.

How the values were obtained:
HLA-B7 = HLA-B7 (Homo sapiens, UniProt P01889); test: Assembly assay, HLA-B7; type: binding
Procedure: (§1) The binding affinity of synthetic peptides (Invitrogen, Carlsbad, Calif., USA) to HLA-A1, -A2, A3, or -A11 molecules metabolically labeled with [^35S]-methionine was measured in the assembly assay, as described previously (12). The assay is based on peptide-mediated stabilization of empty HLA molecules released upon cell lysis, from the TAP-deficient cell lines. Stably folded HLA-molecules were immune-precipitated using the HLA class I-specific, conformation-dependent mAb W6/32, and separated by isoelectric focusing (IEF) gel electrophoresis. MHC heavy chain bands were quantified using the ImageGauge Phosphorimager program (FUJI photo film Co., Carrollton, Tex., USA). The intensity of the band is proportional to the amount of peptide-bound class I MHC complex recovered during the assay. Subsequently, the extent of stabilization of the HLA-molecule is directly related to the binding affinity of the added peptide. The peptide concentration used to analyze the recovery of the HLA-molecules was 40, 4, 0.4, 0.04 μM for HLA-A1 and HLA-A11, and 100, 10, 1, 0.1, 0.01 μM for HLA-A2 and HLA-A3. The C50 value was subsequently calculated for each peptide as the peptide concentration sufficient for half maximal stabilization.
Binding of survivin derived peptides to HLA-B7 The amino acid sequence of the survivin protein was screened for peptides of nine to ten amino acids, with anchor residues according to the peptide binding motif of HLA-B7. Five peptides were selected and analyzed for their ability to stabilize HLA-B7 in the assembly assay. C50 values were estimated for each peptide as the peptide concentration needed for half maximal stabilization of HLA-B7 (table 4).

HLA-A1 = target: T1, HLA-A1 (Homo sapiens, UniProt P04439, A114D/A174V/A182V/D101N/D185E/E176A/E190D/L180R/Q94H/R68K/S129P/T187R/V100A/V91M/W191G); test: Assembly assay, HLA-A1; type: binding; conditions: for pEC50: Table 4, HLA-A1, read-out: C50
T1 construct: empty HLA molecules released upon cell lysis, from the TAP-deficient cell lines; endogenous in cells; host or cells: BM36.1 (TAP-defective cell line expressing HLA-A*0101 and HLA-B*3501)
Procedure: as §1

HLA-A3 = HLA-A3 (Homo sapiens, UniProt P04439); test: Assembly assay, HLA-A3; type: binding; conditions: for pEC50: Table 4, HLA-A3, read-out: C50
Procedure: as §1

HLA-A11 = HLA-A11 (Homo sapiens, UniProt P04439, A114D/D185E/E176A/F33Y/L180Q/S129P/T187R); test: Assembly assay, HLA-A11; type: binding; conditions: for pEC50: Table 4, HLA-A11, read-out: C50
Procedure: as §1

[1] = system: peptide epitope-specific interferon-γ releasing effector cells; test: IFN-γ ELISPOT, Example 4 (PBL or TIL from cancer patients); type: cell-based, human
Procedure: To extend the sensitivity of the ELISPOT assay, PBL were stimulated once in vitro prior to analysis. At day 0, PBL or crushed lymph nodes were thawed and plated as 2×10^6 cells in 2 ml/well in 24-well plates (Nunc, Roskilde, Denmark) in x-vivo medium (Bio Whittaker, Walkersville, Md.), […] heat-inactivated human serum, and 2 mM of L-glutamine in the presence of 10 μM of peptide. Two days later 20 IU/ml recombinant interleukin-2 (IL-2) (Chiron, Ratingen, Germany) was added to the cultures. The cultured cells were tested for reactivity in the ELISPOT on day 10.
The ELISPOT assay was used to quantify peptide epitope-specific interferon-γ releasing effector cells as previously described (16). Briefly, nitrocellulose bottomed 96-well plates (MultiScreen MAIP N45, Millipore, Hedehusene, Denmark) were coated with anti-IFN-γ antibody (1-D1K, Mabtech, Nacka, Sweden). The wells were washed, blocked by X-vivo medium, and the cells were added in duplicates at different cell concentrations. The peptides were then added to each well and the plates were incubated overnight. The following day, media was discarded and the wells were washed prior to addition of biotinylated secondary antibody (7-B6-1-Biotin, Mabtech). The plates were incubated for 2 hours, washed, and avidin-alkaline phosphatase conjugate (Calbiochem, Life Technologies, Inc. San Diego, Calif., USA) was added to each well. The plates were incubated at room temperature for one hour, washed, and the enzyme substrate NBT/BCIP (DakoCytomation Norden A/S, Glostrup, Denmark) was added to each well and incubated at RT for 5-10 min. Upon the emergence of dark purple spots, the reaction was terminated by washing with tap-water. The spots were counted using the ImmunoSpot® Series 2.0 Analyzer (CTL Analyzers, LLC, Cleveland, US) and the peptide specific CTL frequency could be calculated from the numbers of spot-forming cells. All assays were performed in duplicates for each peptide antigen.

[2] = HLA-A3, nine samples from melanoma patients (five PBL and four TIL)

Compound: RPPIFIRRL [C7, reference compound]
- pEC50 (HLA-B7): 6.30

Compound: CC(C)C[C@H](NC(=O)[C@H](CC(=O)O)NC(=O)[C@@H]1CCCN1C(=O)[C@H](CCC(=O)O)NC(=O)[C@H](CC(N)=O)NC(=O)[C@H](CCC(=O)O)NC(=O)[C@@H](NC(=O)[C@@H]1CCCN1)[C@@H](C)O)C(=O)N[C@@H](C)C(=O)N[C@@H](Cc1ccc(O)cc1)C(=O)O [Sur47Y10]
- pEC50 (HLA-A1): 6.40

Compound: CC[C@H](C)[C@H](NC(=O)[C@@H](N)CCCCN)C(=O)N[C@@H](C)C(=O)N[C@@H](CCCCN)C(=O)N[C@@H](CCC(=O)O)C(=O)N[C@H](C(=O)N[C@@H](CC(N)=O)C(=O)N[C@@H](CC(N)=O)C(=O)N[C@@H](CCCCN)C(=O)O)[C@@H](C)O [Sur 112-120]
- binding to HLA-A3, in words (HLA-A3): high affinity
- pEC50 (HLA-A3): 5.70
- binding to HLA-A11, in words (HLA-A11): high affinity
- pEC50 (HLA-A11): 6.00
- ELISPOT response [1, 2]: no immune responses

Compound: CC(C)C[C@H](NC(=O)[C@H](CCC(=O)O)NC(=O)[C@H](CO)NC(=O)[C@@H](N)Cc1ccccc1)C(=O)N[C@H](C(=O)N[C@@H](CC(C)C)C(=O)NCC(=O)N[C@@H](CCC(=O)O)C(=O)N[C@@H](Cc1ccccc1)C(=O)O)[C@@H](C)O [Sur93S2]
- pEC50 (HLA-A1): 4.52

Compound: CPTENEPDL [Sur46-54]
- C50 (half maximal stabilization of HLA-B7) (HLA-B7; Example 4): did not bind
- pEC50 (HLA-B7; Table 4, HLA-B7, read-out: C50): < 4.00

Compound: EPDLAQCFF [Sur51-59]
- C50 (half maximal stabilization of HLA-B7) (HLA-B7; Example 4): did not bind
- pEC50 (HLA-B7; Table 4, HLA-B7, read-out: C50): < 4.00

Compound: CC(C)C[C@H](NC(=O)[C@H](CCC(=O)O)NC(=O)[C@H](CCC(=O)O)NC(=O)[C@@H](NC(=O)[C@@H](N)CCC(N)=O)[C@@H](C)O)C(=O)N[C@H](C(=O)N[C@@H](CC(C)C)C(=O)NCC(=O)N[C@@H](CCC(=O)O)C(=O)N[C@@H](Cc1ccccc1)C(=O)O)[C@@H](C)O [Sur92T2]
- pEC50 (HLA-A1): 5.70

Compound: CC[C@H](C)[C@H](NC(=O)[C@@H](N)CCCCN)C(=O)N[C@@H](C)C(=O)N[C@@H](CCCCN)C(=O)N[C@@H](CCC(=O)O)C(=O)N[C@H](C(=O)N[C@@H](CC(N)=O)C(=O)N[C@@H](CC(N)=O)C(=O)N[C@@H](CCCCN)C(=O)N[C@@H](CCCCN)C(=O)O)[C@@H](C)O [Sur 112-121]
- binding to HLA-A3, in words (HLA-A3): high affinity
- pEC50 (HLA-A3): 6.00
- binding to HLA-A11, in words (HLA-A11): bound weakly
- pEC50 (HLA-A11): < 4.00
- ELISPOT response [1, 2]: no immune responses

Compound: CC(C)C[C@H](NC(=O)[C@H](Cc1ccccc1)NC(=O)[C@H](CCC(=O)O)NC(=O)CNC(=O)[C@H](CC(C)C)NC(=O)[C@@H](NC(=O)[C@H](CC(C)C)NC(=O)[C@@H](N)CCC(=O)O)[C@@H](C)O)C(=O)N[C@@H](CCCCN)C(=O)O [Sur 95-103]
- binding to HLA-A3, in words (HLA-A3): bound weakly
- pEC50 (HLA-A3): < 4.00
- ELISPOT response [1, 2]: no immune responses

Compound: CC(C)C[C@H](NC(=O)[C@H](CCC(=O)O)NC(=O)[C@H](CCC(=O)O)NC(=O)[C@H](Cc1ccccc1)NC(=O)[C@@H](N)CCC(N)=O)C(=O)N[C@H](C(=O)N[C@@H](CC(C)C)C(=O)NCC(=O)N[C@@H](CCC(=O)O)C(=O)N[C@@H](Cc1ccccc1)C(=O)O)[C@@H](C)O [Sur92-101]
- binding to HLA-A1, in words (HLA-A1): bound with almost similar high affinity as a known positive control epitope
- pEC50 (HLA-A1): 5.70
- ELISPOT response ([1]; HLA-A1, Mel.A1-2): showed responses
- ELISPOT response ([1]; HLA-A1, Mel.A1-3, PBL): T-cell response

Compound: QPRAPIRPI [C6, reference compound]
- pEC50 (HLA-B7): 7.00

Compound: CC(C)C[C@H](NC(=O)[C@H](CCC(=O)O)NC(=O)[C@@H](NC(=O)[C@@H](N)Cc1ccccc1)[C@@H](C)O)C(=O)N[C@H](C(=O)N[C@@H](CC(C)C)C(=O)NCC(=O)N[C@@H](CCC(=O)O)C(=O)N[C@@H](Cc1ccccc1)C(=O)O)[C@@H](C)O [Sur93T2]
- binding to HLA-A1, in words (HLA-A1): bound with high affinity
- pEC50 (HLA-A1): 6.00
- ELISPOT response ([1]; HLA-A1, Mel.A1-2): showed responses
- ELISPOT response ([1]; HLA-A1, Mel.A1-3, PBL): T-cell response
- ELISPOT response ([1]; HLA-A1, Mel.A1-4/PBL): responses were observed

The next lines start with results.

- binding to HLA-A1, in words (HLA-A1): non-binding
Compound: ENEPDLAQCF [Sur49-58]

- pEC50 (HLA-B7; Example 4, read-out: C50 (half maximal stabilization of HLA-B7)): < 4.00
- pEC50 (HLA-B7; Table 4, HLA-B7, read-out: C50): < 4.00
Compound: LPPAWQPFL [Sur6-14]

- binding to HLA-A11, in words (HLA-A11): high affinity
Compound: CC(C)C[C@H](N)C(=O)N[C@@H](C)C(=O)N[C@@H](CCC(N)=O)C(=O)N[C@@H](CS)C(=O)N[C@@H](Cc1ccccc1)C(=O)N[C@@H](Cc1ccccc1)C(=O)N[C@@H](CS)C(=O)N[C@@H](Cc1ccccc1)C(=O)N[C@@H](CCCCN)C(=O)O [Sur 54-62]

- pEC50 (HLA-A1): 4.00
Compound: CC(C)C[C@H](NC(=O)[C@H](CCC(=O)O)NC(=O)[C@H](CCC(=O)O)NC(=O)[C@H](CO)NC(=O)[C@@H](N)CCC(N)=O)C(=O)N[C@H](C(=O)N[C@@H](CC(C)C)C(=O)NCC(=O)N[C@@H](CCC(=O)O)C(=O)N[C@@H](Cc1ccccc1)C(=O)O)[C@@H](C)O [Sur92S2]

- binding to HLA-A1, in words (HLA-A1): low binding affinity
- pEC50 (HLA-A1): < 4.00
Compound: CC(C)C[C@H](NC(=O)[C@H](CCC(=O)O)NC(=O)[C@H](CCC(=O)O)NC(=O)[C@@H](N)Cc1ccccc1)C(=O)N[C@H](C(=O)N[C@@H](CC(C)C)C(=O)NCC(=O)N[C@@H](CCC(=O)O)C(=O)N[C@@H](Cc1ccccc1)C(=O)O)[C@@H](C)O [Sur93-101]
- ELISPOT response ([1]; HLA-A1, ten melanoma patients, data not shown): no peptide-specific responses were detected

- binding to HLA-A3, in words (HLA-A3): high affinity
- pEC50 (HLA-A3): 5.70
Compound: CC(C)C[C@H](NC(=O)[C@@H](N)[C@@H](C)O)C(=O)N1CCC[C@H]1C(=O)N1CCC[C@H]1C(=O)N[C@@H](C)C(=O)N[C@@H](Cc1c[nH]c2ccccc12)C(=O)N[C@@H](CCC(N)=O)C(=O)N1CCC[C@H]1C(=O)N[C@@H](CCCCN)C(=O)O [Sur5K9]
- ELISPOT response [1, 2]: No responses were detected

- pEC50 (HLA-A1): 6.10
Compound: CC[C@H](C)[C@H](NC(=O)[C@H](Cc1ccccc1)NC(=O)CNC(=O)[C@H](C)NC(=O)[C@H](CCC(=O)O)NC(=O)[C@H](C)NC(=O)[C@@H](N)CCSC)C(=O)N[C@@H](Cc1c[nH]cn1)C(=O)N[C@@H](Cc1ccc(O)cc1)C(=O)O [Sur38Y9]

- binding to HLA-A3, in words (HLA-A3): high affinity
- pEC50 (HLA-A3): 7.70
Compound: CC[C@H](C)[C@H](NC(=O)[C@@H](N)CCCNC(=N)N)C(=O)N[C@@H](CO)C(=O)N[C@H](C(=O)N[C@@H](Cc1ccccc1)C(=O)N[C@@H](CCCCN)C(=O)N[C@@H](CC(N)=O)C(=O)N[C@@H](Cc1c[nH]c2ccccc12)C(=O)N1CCC[C@H]1C(=O)N[C@@H](CCCCN)C(=O)O)[C@@H](C)O [Sur18K10]
- ELISPOT response [1, 2]: CTL reactivity was detected
- responding patients ([1]; HLA-A3, twenty-seven melanoma patients analyzed): six
